Laboratory results from patent US20230293630A1, “Coronavirus T Cell Epitopes and Uses Thereof” (priority 2020, published 2023).

Each sequence was assayed on SARS-CoV-2-specific CD4+ T cells (OX40+CD137+) in PBMC. Settings: not given.
Type: cell-based, human
FYSKWYIRVGARKSA [SEQ ID NO 255] was tested, and the “Frequency of response (%)” value was 55%, the “Magnitude by # of responding donors” value was 468 and the Sum of response was 2805.

Same assay, conditions: CD4+ T cell epitopes identified by AIM assay; percent of tested donors responding
With AQYTSALLAGTITSG the “Frequency of response (%)” value was 9%. In the case of NLLLQYGSFCTQLNR, the “Frequency of response (%)” value is reported as 31%. With LVYFLQSINFVRIIM [SEQ ID NO 251] the “Frequency of response (%)” value was 7%. For APHGVVFLHVTYVPA, the “Frequency of response (%)” value was 7%. With CEFQFCNDPFLGVYY the “Frequency of response (%)” value was 27%.

Same assay, conditions: CD4+ T cell epitopes identified by AIM assay; share of donors responding
FNICQAVTANVNALL was tested, and the “Frequency of response (%)” value was 6%. With WNSNNLDSKVGGNYN the “Frequency of response (%)” value was 9%. In the case of ILLNKHIDAYKTFPP, the “Frequency of response (%)” value is reported as 42%. With YFTSDYYQLYSTQLS the “Frequency of response (%)” value was 8%. With NPVLPFNDGVYFAST the “Frequency of response (%)” value was 9%. In the case of FIASFRLFARTRSMW, the “Frequency of response (%)” value is reported as 8%. For TDTGVEHVTFFIYNK, the “Frequency of response (%)” value was 7%. In the case of NLVIGFLFLTWICLL, the “Frequency of response (%)” value is reported as 7%. MAAYVDNSSLTIKKP was tested, and the “Frequency of response (%)” value was 7%. FGTTLDSKTQSLLIV was tested, and the “Frequency of response (%)” value was 9%. In the case of ALLAVFQSASKIITL [SEQ ID NO 249], the “Frequency of response (%)” value is reported as 9%. For QMAYRFNGIGVTQNV, the “Frequency of response (%)” value was 7%. With SHRFYRLANECAQVL the “Frequency of response (%)” value was 6%. For QPYRVVVLSFELLHA, the “Frequency of response (%)” value was 7%. For PRPPLNRNYVFTGYR, the “Frequency of response (%)” value was 8%. For FGLVAEWFLAYILFT, the “Frequency of response (%)” value was 8%. For QYGDCLGDIAARDLI, the “Frequency of response (%)” value was 8%. For LTQHGKEDLKFPRGQ, the “Frequency of response (%)” value was 8%. With PRWYFYYLGTGPEAG the “Frequency of response (%)” value was 7%. In the case of FKIYSKHTPINLVRD, the “Frequency of response (%)” value is reported as 18%. In the case of HTTDPSFLGRYMSAL, the “Frequency of response (%)” value is reported as 18%. LLWPVTLACFVLAAV was tested, and the “Frequency of response (%)” value was 17%. In the case of PNFSKLINIIIWFLL, the “Frequency of response (%)” value is reported as 8%. For AVMSLKEGQINDMIL, the “Frequency of response (%)” value was 33%. In the case of IWVATEGALNTPKDH, the “Frequency of response (%)” value is reported as 7%. With LLLLDRLNQLESKMS [SEQ ID NO 247] the “Frequency of response (%)” value was 21%. With TLRVEAFEYYHTTDP the “Frequency of response (%)” value was 18%. FKDQVILLNKHIDAY was tested, and the “Frequency of response (%)” value was 33%. For FHQECSLQSCTQHQP, the “Frequency of response (%)” value was 18%. For GMEVTPSGTWLTYTG, the “Frequency of response (%)” value was 8%. For CVDEAGSKSPIQYID, the “Frequency of response (%)” value was 9%. DSKTQSLLIVNNATN was tested, and the “Frequency of response (%)” value was 9%. With LGDIAARDLICAQKF the “Frequency of response (%)” value was 8%. For DAALALLLLDRLNQL [SEQ ID NO 246], the “Frequency of response (%)” value was 21%. For DFLEYHDVRVVLDFI, the “Frequency of response (%)” value was 18%. In the case of RRGPEQTQGNFGDQE, the “Frequency of response (%)” value is reported as 8%. In the case of GTILTRPLLESELVI, the “Frequency of response (%)” value is reported as 17%.

Same assay, conditions: CD4+ T cell epitopes identified by AIM assay; sum of response per responding donor
With FNICQAVTANVNALL the “Magnitude by # of responding donors” value was 220. WNSNNLDSKVGGNYN was tested, and the “Magnitude by # of responding donors” value was 101. With ILLNKHIDAYKTFPP the “Magnitude by # of responding donors” value was 483. With YFTSDYYQLYSTQLS the “Magnitude by # of responding donors” value was 198. NPVLPFNDGVYFAST was tested, and the “Magnitude by # of responding donors” value was 413. In the case of FIASFRLFARTRSMW, the “Magnitude by # of responding donors” value is reported as 353. With TDTGVEHVTFFIYNK the “Magnitude by # of responding donors” value was 118. AQYTSALLAGTITSG was tested, and the “Magnitude by # of responding donors” value was 336. NLVIGFLFLTWICLL was tested, and the “Magnitude by # of responding donors” value was 261. For MAAYVDNSSLTIKKP, the “Magnitude by # of responding donors” value was 185. With FGTTLDSKTQSLLIV the “Magnitude by # of responding donors” value was 174. In the case of ALLAVFQSASKIITL [SEQ ID NO 249], the “Magnitude by # of responding donors” value is reported as 178. In the case of QMAYRFNGIGVTQNV, the “Magnitude by # of responding donors” value is reported as 160. In the case of SHRFYRLANECAQVL, the “Magnitude by # of responding donors” value is reported as 535. In the case of QPYRVVVLSFELLHA, the “Magnitude by # of responding donors” value is reported as 183. In the case of PRPPLNRNYVFTGYR, the “Magnitude by # of responding donors” value is reported as 101. With FGLVAEWFLAYILFT the “Magnitude by # of responding donors” value was 219. For QYGDCLGDIAARDLI, the “Magnitude by # of responding donors” value was 152. In the case of LTQHGKEDLKFPRGQ, the “Magnitude by # of responding donors” value is reported as 127. With PRWYFYYLGTGPEAG the “Magnitude by # of responding donors” value was 750. With FKIYSKHTPINLVRD the “Magnitude by # of responding donors” value was 484. With HTTDPSFLGRYMSAL the “Magnitude by # of responding donors” value was 2461. In the case of LLWPVTLACFVLAAV, the “Magnitude by # of responding donors” value is reported as 260. For PNFSKLINIIIWFLL, the “Magnitude by # of responding donors” value was 3802. AVMSLKEGQINDMIL was tested, and the “Magnitude by # of responding donors” value was 104. For IWVATEGALNTPKDH, the “Magnitude by # of responding donors” value was 200. NLLLQYGSFCTQLNR was tested, and the “Magnitude by # of responding donors” value was 1140. LVYFLQSINFVRIIM [SEQ ID NO 251] was tested, and the “Magnitude by # of responding donors” value was 218. In the case of LLLLDRLNQLESKMS [SEQ ID NO 247], the “Magnitude by # of responding donors” value is reported as 581. In the case of TLRVEAFEYYHTTDP, the “Magnitude by # of responding donors” value is reported as 318. FKDQVILLNKHIDAY was tested, and the “Magnitude by # of responding donors” value was 446. APHGVVFLHVTYVPA was tested, and the “Magnitude by # of responding donors” value was 293. With FHQECSLQSCTQHQP the “Magnitude by # of responding donors” value was 413. For CEFQFCNDPFLGVYY, the “Magnitude by # of responding donors” value was 359. GMEVTPSGTWLTYTG was tested, and the “Magnitude by # of responding donors” value was 380. With CVDEAGSKSPIQYID the “Magnitude by # of responding donors” value was 327. For DSKTQSLLIVNNATN, the “Magnitude by # of responding donors” value was 108. With LGDIAARDLICAQKF the “Magnitude by # of responding donors” value was 153. DAALALLLLDRLNQL [SEQ ID NO 246] was tested, and the “Magnitude by # of responding donors” value was 488. DFLEYHDVRVVLDFI was tested, and the “Magnitude by # of responding donors” value was 341. In the case of RRGPEQTQGNFGDQE, the “Magnitude by # of responding donors” value is reported as 518. With GTILTRPLLESELVI the “Magnitude by # of responding donors” value was 161.

Same assay, conditions: CD4+ T cell epitopes identified by AIM assay; total response
FNICQAVTANVNALL showed a Sum of response of 220. For WNSNNLDSKVGGNYN, the Sum of response was 101. For ILLNKHIDAYKTFPP, the Sum of response was 2416. YFTSDYYQLYSTQLS gave a Sum of response of 198. NPVLPFNDGVYFAST showed a Sum of response of 413. In the case of FIASFRLFARTRSMW, the Sum of response is reported as 353. TDTGVEHVTFFIYNK was tested, and the Sum of response was 118. NLVIGFLFLTWICLL showed a Sum of response of 261. With MAAYVDNSSLTIKKP the Sum of response was 185. Work on FGTTLDSKTQSLLIV yielded a Sum of response of 174. ALLAVFQSASKIITL [SEQ ID NO 249] showed a Sum of response of 178. Work on QMAYRFNGIGVTQNV yielded a Sum of response of 160. SHRFYRLANECAQVL showed a Sum of response of 535. QPYRVVVLSFELLHA showed a Sum of response of 183. PRPPLNRNYVFTGYR gave a Sum of response of 101. Work on FGLVAEWFLAYILFT yielded a Sum of response of 219. Work on QYGDCLGDIAARDLI yielded a Sum of response of 152. Sequence LTQHGKEDLKFPRGQ has a Sum of response of 127. With PRWYFYYLGTGPEAG the Sum of response was 750. FKIYSKHTPINLVRD was tested, and the Sum of response was 967. Sequence HTTDPSFLGRYMSAL has a Sum of response of 4921. LLWPVTLACFVLAAV was tested, and the Sum of response was 520. For PNFSKLINIIIWFLL, the Sum of response was 3802. AVMSLKEGQINDMIL showed a Sum of response of 104. IWVATEGALNTPKDH gave a Sum of response of 200. In the case of LLLLDRLNQLESKMS [SEQ ID NO 247], the Sum of response is reported as 1742. With TLRVEAFEYYHTTDP the Sum of response was 635. FKDQVILLNKHIDAY gave a Sum of response of 1785. Sequence FHQECSLQSCTQHQP has a Sum of response of 826. With GMEVTPSGTWLTYTG the Sum of response was 380. CVDEAGSKSPIQYID was tested, and the Sum of response was 327. For DSKTQSLLIVNNATN, the Sum of response was 108. With LGDIAARDLICAQKF the Sum of response was 153. Sequence DAALALLLLDRLNQL [SEQ ID NO 246] has a Sum of response of 1463. DFLEYHDVRVVLDFI gave a Sum of response of 681. Work on RRGPEQTQGNFGDQE yielded a Sum of response of 518. Sequence GTILTRPLLESELVI has a Sum of response of 322.

Same assay, conditions: CD4+ T cell epitopes identified by AIM assay; total response summed over donors
With AQYTSALLAGTITSG the Sum of response was 336. NLLLQYGSFCTQLNR gave a Sum of response of 4560. In the case of LVYFLQSINFVRIIM [SEQ ID NO 251], the Sum of response is reported as 218. APHGVVFLHVTYVPA gave a Sum of response of 293. With CEFQFCNDPFLGVYY the Sum of response was 1077.
